Test results taken from US8637544B2, “Neurite formation promoter” (Senju Pharmaceutical Co., Ltd., priority 2007, dated 2014).

Assays:
[1] = system: cultured rabbit trigeminal nerve cells; assay: Promoting effect on neuritogenesis in cultured rabbit trigeminal nerve cells, concentration series (Test Example 3); assay type: cell-based; conditions: for Ratio (%) of neuritogenesis cells: 48 h, mean±SD, control 30.4 ± 19.5
Text: (§1) Japanese White rabbits (4 days old, male) purchased from Oriental Yeast Co., Ltd. were used.
Rabbit trigeminal nerve cells were isolated according to the report by Chan et al. (Kwan Y. Chan and Richard H. Haschke. Exp. Eye Res. 41: 687-699, 1985). Specifically, a rabbit underwent cardiac perfusion with physiological saline under anesthesia with pentobarbital sodium injection (Dainippon Sumitomo Pharma), after which the trigeminal ganglia were cut out. The trigeminal ganglia cut out were washed with Hanks' balanced salt solution (HBSS, Invitrogen), and thereafter treated with 300 μg/mL collagenase-dispase (Roche) at 37° C. for 40 minutes; centrifugation was performed at 120×g for 5 minutes, and the cells were collected. The enzyme reaction was stopped with Neurobasal (registered trademark, Invitrogen) supplemented with EDTA at a final concentration of 0.1%, and the cells were suspended in culture medium, after which centrifugation was performed at 120×g for 5 minutes, and trigeminal nerve cells were prepared.
The cells prepared were seeded in a 8-well chamber slide coated with polylysine/laminin (Falcon) at about 3×10^3 cells/well; after the seeding, the cells were cultured for 24 hours. After the 24 hours, each of Compound A (final concentration: 0.001 nM (0.00026 ng/mL), 0.1 nM (0.026 ng/ml), 10 nM (2.6 ng/mL), 1000 nM (260 ng/mL)) and NGF (final concentration 1 μg/ml) as a positive control or PBS as a control, was added to the culture medium. After the addition, the cells were further cultured for 48 hours.
The culture medium used was a Neurobasal containing the B27 supplement (Invitrogen) (final concentration 2% (v/v)), L-glutamine (Invitrogen) (final concentration 1 mM) and cytosine-1-β-D(+)arabinofuranoside (final concentration 10 μM). Culturing conditions were set at a carbon dioxide concentration of 5%, an air concentration of 95%, a humidity of 100%, and a temperature of 37° C.
(§2) After the 48 hours of cultivation, the rabbit trigeminal nerve cells were immersed and fixed in 10% neutrally buffered formaldehyde solution at room temperature for 20 minutes. The specimens fixed were fluorescently stained using the anti-neurofilament 200 antibody (Sigma-Aldrich), which specifically recognizes neurofilaments constituting nerve cell bodies and neurites, and the cells stained were examined under a fluorescence microscope (Olympus). Stained cells were incorporated as images from the fluorescence microscope into a computer.
To evaluate the degree of neuritogenesis in the cultured rabbit trigeminal nerve cells, cell body diameters and neurite lengths were measured on the computer-captured stained cell images using image analysis software (Image-Pro Plus Ver. 4.5.1, Media Cybernetics). Cells having a neurite with a length of not less than twice the diameter of the cell body were regarded as neuritogenesis cells, and the ratio (%) of the cells to the total cell count was calculated (Otori Y, Wei J Y, Barnstable C J. Invest. Opthalmol V is Sci (1998) 39, 972-981).

[2] = system: rabbit retinal nerve cells; assay: Promoting effect on neuritogenesis in rabbit retinal cells (Test Example 2); assay type: cell-based; conditions: 0.1 nM (0.026 ng/mL), 48 h culture after addition; FIG. 2
Procedure: as §1
A rabbit underwent cardiac perfusion with physiological saline under anesthesia with pentobarbital sodium injection (Dainippon Sumitomo Pharma), after which the eyeballs were extirpated and the retinas were isolated. The retinas isolated were placed in a papain solution (1 mg/mL, Sigma-Aldrich Japan K.K.) suspended in Hanks' balanced salt solution (HBSS, Invitrogen), and subjected to enzymatic digestion at 37° C. for 30 minutes. Thereafter, Leibovitz's L-15 Medium (L-15, Invitrogen) was used to prepare reagents. After the suspension was allowed to stand, the supernatant was discarded, 3 mL of a trypsin inhibitor solution (2 mg/mL trypsin inhibitor, 0.004% DNase and 1 mg/mL Bovine Serum Albumin dissolved in L-15, pH 7.4) was added, and pipetting was performed. After the solution was allowed to stand, the supernatant was discarded, another 3 mL of the trypsin inhibitor solution was added, pipetting was performed, and this operation was once again repeated; centrifugation was performed at 120×g for 5 minutes, and the supernatant was removed. […]

[3] = system: corneal sensitivity after corneal flap creation; assay: Improving effect on rabbit corneal hyposensitivity after corneal flap creation (Test Example 4); assay type: in vivo; conditions: 1 nM ophthalmic solution, instillation 50 μL four times a day for 6 weeks
Procedure: Japanese White rabbits weighing 2.5 to 3.0 kg purchased from KITAYAMA LABES were used. From arrival to the day of test completion, the animals were kept in a breeding room set at a room temperature of 23±3° C., a humidity of 55±10%, and 12-hour lighting (lighted on at 8:00, lighted off at 20:00) at one animal per cage. Each animal was fed up to 100 to 120 g of a solid food (Labo R Stock, Nosan Corporation) a day, and had free access to tap water.
Compound A was used as a test substance. The test substance was dissolved in the base shown below to obtain a concentration of 1 nM (0.00000026%) to yield an ophthalmic solution. For a control group, the following base, free of the test substance, was administered by instillation.
3. Test Procedures 1) Grouping
On the day before flap creation, the animals were macroscopically examined for the ocular surface and examined for fluorescein-stained spots in the cornea; rabbits with no abnormalities observed therein were selected, and initial values of corneal sensitivity were measured using the Cochet-Bonnet aesthesiometer (manufactured by Luneau). […]
One week, 2 weeks, 4 weeks or 6 weeks after surgery, corneal sensitivity was measured using the Cochet-Bonnet aesthesiometer. […]

[4] = system: cultured rabbit trigeminal nerve cells; assay: Promoting effect on neuritogenesis in cultured rabbit trigeminal nerve cells (Test Example 1); assay type: cell-based; conditions: 0.1 nM (0.026 ng/mL), 48 h culture after addition; mean±SD, N=5; control 29.5±8.7%
Text: as §1
N-(1-acetylpiperidin-4-yl)-4-fluorobenzamide (hereinafter referred to as Compound A) was used.
Rabbit trigeminal nerve cells were isolated according to the report of Chan et al. (Kwan Y. Chan and Richard H. Haschke. Exp. Eye Res. 41: 687-699, 1985). Specifically, a rabbit underwent cardiac perfusion with physiological saline under anesthesia with pentobarbital sodium injection (Dainippon Sumitomo Pharma), after which the trigeminal ganglia thereof were cut out. […]
as §2, with “of cultivation following the addition,” for “of cultivation,”, “Stained cell” for “Stained cells”
To evaluate the degree of neuritogenesis in the cultured rabbit trigeminal nerve cells, cell body diameters and neurite lengths were measured on the computer-captured stained cell images using image analysis software (Image-Pro Plus Ver. 4.5.1, Media Cybernetics). […]

CC(=O)N1CCC(NC(=O)c2ccc(F)cc2)CC1 [Compound A, N-(1-acetylpiperidin-4-yl)-4-fluorobenzamide]
Ratio (%) of neuritogenesis cells ([1]; 0.001 nM): 33.6 ± 16.3%
Ratio (%) of neuritogenesis cells ([1]; 0.1 nM, *p<0.05 vs control): 45.9 ± 15.1* %
Ratio (%) of neuritogenesis cells ([1]; 10 nM): 37.2 ± 16.5%
Ratio (%) of neuritogenesis cells ([1]; 1000 nM): 37.0 ± 20.0%
optimum concentration for promoting effect on neuritogenesis in trigeminal nerve cells ([1]; tested at 0.001, 0.1, 10, 1000 nM): 0.1 nM
neuritogenesis in retinal nerve cells stained with anti-neurofilament antibody [2]: Remarkable neuritogenesis was observed
time when a sense was observed for the first time after corneal flap creation (first measured value of 5 mm filament length or more) ([3]; average, vehicle group 5.5 weeks): 4.1 weeks
recovery from decreased corneal sensitivity after flap creation (Cochet-Bonnet aesthesiometer) ([3]; versus vehicle instillation group, FIG. 3): accelerated recovery from decreased corneal sensitivity after flap creation
ratio of neuritogenesis cells to all cells [4]: 63.3±5.2%
